Experiments:
Assay in all cases: GRmax, 72 h; higher = less effect;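 further: breast cell lines in 384-well plates, nine doses across a 10^4 range, Dye Drop imaging of viable cells vs DMSO and time-zero plates, GR 0 means no net growth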
BT20 = test system: BT20
CAL51 = test system: CAL51
CAL851 = test system: CAL851
HCC1143 = test system: HCC1143
HCC1569 = test system: HCC1569
HCC38 = test system: HCC38
HCC70 = test system: HCC70
MDAMB231 = test system: MDAMB231
MDAMB415 = test system: MDAMB415
MDAMB453 = test system: MDAMB453
UACC893 = test system: UACC893
ZR7530 = test system: ZR7530

SMILES | GRmax, 72 h (BT20) | GRmax, 72 h (CAL51) | GRmax, 72 h (CAL851) | GRmax, 72 h (HCC1143) | GRmax, 72 h (HCC1569) | GRmax, 72 h (HCC38) | GRmax, 72 h (HCC70) | GRmax, 72 h (MDAMB231) | GRmax, 72 h (MDAMB415) | GRmax, 72 h (MDAMB453) | GRmax, 72 h (UACC893) | GRmax, 72 h (ZR7530)
CC1(N)CCN(c2cnc(-c3cccc(Cl)c3Cl)c(N)n2)CC1 [SHP099] (max 10 µM) | 0.914 GR | 0.904 GR | 0.632 GR | 0.796 GR | 0.92 GR | 0.523 GR | 0.708 GR | 0.943 GR | 0.75 GR | 0.726 GR | 0.703 GR | 0.715 GR
CN1CCN(CCOc2cc(OC3CCOCC3)c3c(Nc4c(Cl)ccc5c4OCO5)ncnc3c2)CC1 [Saracatinib/AZD0530] (max 10 µM) | 0.31 GR | 0.258 GR | 0.116 GR | 0.388 GR | 0.161 GR | 0.614 GR | -0.172 GR | 0.28 GR | 0.324 GR | 0.393 GR | 0.141 GR | -0.159 GR
Cc1cc(C(C)Nc2ccccc2)c2nc(N3CCOCC3)cc(=O)n2c1 (stereo unspecified) [TGX221] (max 10 µM) | 1.02 GR | 0.91 GR | 0.99 GR | 0.918 GR | 0.774 GR | 0.952 GR | 0.0049 GR | 0.851 GR | 0.184 GR | 0.828 GR | 0.939 GR | 0.925 GR
CN(C)C/C=C/C(=O)Nc1ccc(C(=O)Nc2cccc(Nc3ncc(Cl)c(-c4c[nH]c5ccccc45)n3)c2)cc1 [THZ1] (max 1 µM) | -0.385 GR | 0.107 GR | -0.549 GR | -0.318 GR | -0.325 GR | -0.568 GR | -0.944 GR | -0.505 GR | -0.421 GR | -0.256 GR | -0.525 GR | -0.638 GR
CN(C)C/C=C/C(=O)Nc1ccc(C(=O)N2CCC[C@@H](Nc3ncc(Cl)c(-c4c[nH]c5ccccc45)n3)C2)cc1 [THZ531] (max 1 µM) | 0.637 GR | 0.559 GR | -0.196 GR | -0.23 GR | -0.155 GR | -0.337 GR | -0.933 GR | -0.276 GR | -0.344 GR | -0.294 GR | -0.417 GR | -0.732 GR
CN(C)C/C=C/C(=O)Nc1ccc(C(=O)Nc2cccc(Nc3cc(-c4c[nH]c5ccccc45)ncn3)c2)cc1 [THZ-P1-2] (max 10 µM) | -0.623 GR | 0.751 GR | 0.468 GR | -0.404 GR | -0.359 GR | -0.509 GR | -0.837 GR | -0.691 GR | -0.513 GR | -0.706 GR | -0.761 GR | -0.964 GR
Cc1nc(-c2cn3c(n2)-c2ccc(-c4cnn(C(C)(C)C(N)=O)c4)cc2OCC3)n(C(C)C)n1 [Taselisib/GDC0032] (max 10 µM) | -0.375 GR | -0.413 GR | -0.0171 GR | -0.0942 GR | -0.121 GR | 0.0628 GR | -0.685 GR | 0.0709 GR | -0.792 GR | -0.635 GR | -0.898 GR | -0.478 GR
O=C1NC(=O)[C@@H](c2cn3c4c(cccc24)CCC3)[C@@H]1c1c[nH]c2ccccc12 [Tivantinib/ARQ197] (max 10 µM) | -0.488 GR | -0.282 GR | -0.326 GR | -0.312 GR | -0.11 GR | -0.27 GR | -0.566 GR | -0.0845 GR | -0.184 GR | -0.0719 GR | -0.248 GR | -0.539 GR
Nc1ccc(-c2ccc3ncc4ccc(=O)n(-c5cccc(C(F)(F)F)c5)c4c3c2)cn1 [Torin2] (max 1 µM) | -0.289 GR | -0.152 GR | -0.154 GR | -0.153 GR | -0.0827 GR | -0.211 GR | -0.555 GR | -0.0262 GR | -0.372 GR | -0.814 GR | -0.828 GR | -0.0202 GR
CC[C@@H]1C(=O)N(C)c2cnc(Nc3ccc(C(=O)N[C@H]4CC[C@H](N5CCN(CC6CC6)CC5)CC4)cc3OC)nc2N1C(C)C [Volasertib/BI6727] (max 1 µM) | -0.534 GR | -0.337 GR | -0.289 GR | -0.345 GR | 0.0147 GR | -0.26 GR | -0.205 GR | -0.0186 GR | -0.314 GR | -0.201 GR | -0.424 GR | -0.42 GR
O=C(CCCCCCC(=O)Nc1ccccc1)NO [Vorinostat] (max 10 µM) | -0.113 GR | -0.0506 GR | -0.183 GR | -0.253 GR | -0.294 GR | -0.285 GR | -0.476 GR | -0.385 GR | -0.503 GR | -0.608 GR | -0.337 GR | -0.318 GR
C=CC(=O)Nc1ccc(C(=O)Nc2[nH]nc3c2CN(C(=O)N[C@H](CN(C)C)c2ccccc2)C3(C)C)cc1 [YKL-5-124] (max 10 µM) | -0.153 GR | 0.0082 GR | -0.592 GR | -0.0844 GR | -0.164 GR | -0.39 GR | -0.835 GR | -0.19 GR | -0.0129 GR | -0.503 GR | -0.626 GR | -0.625 GR
CN1CCN(C(=O)c2ccc3cc(CCNc4ncnc5ccc(C#N)cc45)ccc3c2)CC1 [senexin b] (max 10 µM) | 0.175 GR | 0.755 GR | 0.615 GR | 0.452 GR | 0.514 GR | 0.614 GR | 0.458 GR | 0.892 GR | 0.609 GR | 0.148 GR | 0.71 GR | 0.0824 GR

— the supplement of paper PMC9663587
